Results reported in PubChem BioAssay AID434951 (Broad Institute, 2010).
The source made the active and inactive calls.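 Rule for the calls: active = a fitted half-maximal concentration EC50 for the rise in nuclear signal no higher than ten times the top dose tested; inconclusive = flat fit with activity between 30% and 70%, or unusable fit; inactive = EC50 beyond ten times the top dose.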

Molecular target: Hypoxia-inducible factor 1-alpha (Homo sapiens) (UniProt Q16665)
Assay: activators of HIF1alpha nuclear accumulation, confirmation, imaging, fluorescence, U2OS GFP-HIF1alpha (AID 434951)
Conditions: U2OS GFP-HIF1alpha nuclear intensity, high-content imaging

Hypoxia-inducible factor 1-alpha (Homo sapiens), sequence (Q16665 whole entry, looked up): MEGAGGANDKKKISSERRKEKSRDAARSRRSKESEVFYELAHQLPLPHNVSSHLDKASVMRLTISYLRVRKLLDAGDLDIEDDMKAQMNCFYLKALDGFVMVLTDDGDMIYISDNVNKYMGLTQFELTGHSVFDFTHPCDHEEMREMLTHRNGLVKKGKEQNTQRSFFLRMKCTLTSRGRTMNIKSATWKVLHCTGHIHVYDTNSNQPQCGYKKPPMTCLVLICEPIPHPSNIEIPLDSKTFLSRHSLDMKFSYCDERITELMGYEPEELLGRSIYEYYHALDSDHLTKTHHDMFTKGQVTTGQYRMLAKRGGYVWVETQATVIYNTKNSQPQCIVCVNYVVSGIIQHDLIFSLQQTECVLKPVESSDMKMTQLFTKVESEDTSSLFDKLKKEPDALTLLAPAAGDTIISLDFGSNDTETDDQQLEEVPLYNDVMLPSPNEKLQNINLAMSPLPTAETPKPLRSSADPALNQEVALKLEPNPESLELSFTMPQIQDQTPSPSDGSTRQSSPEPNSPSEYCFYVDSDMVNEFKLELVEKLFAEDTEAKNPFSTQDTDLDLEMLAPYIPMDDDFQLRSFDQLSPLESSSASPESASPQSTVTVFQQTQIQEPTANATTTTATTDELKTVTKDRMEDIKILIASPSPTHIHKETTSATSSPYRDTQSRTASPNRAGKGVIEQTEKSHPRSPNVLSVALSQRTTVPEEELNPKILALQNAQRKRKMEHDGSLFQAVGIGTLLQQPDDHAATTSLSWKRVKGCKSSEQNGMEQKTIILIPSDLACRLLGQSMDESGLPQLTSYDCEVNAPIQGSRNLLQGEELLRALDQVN

Row | Structure (SMILES) | EC50
1 | CC(C)c1ccc2oc(=O)cc(CN3CCOCC3)c2c1 | > 35 µM (inactive)
2 | CCOC(=O)c1c(NC(=O)CN2C(=O)NC3(CCC(C)CC3)C2=O)sc(C)c1-c1ccc(C)cc1 (stereo not drawn) | 7.59 µM
3 | CCCCNC(=O)CN1C(=O)COc2ccc(S(=O)(=O)N3CCCCCC3)cc21 | > 35 µM (inactive)
4 | O=[N+]([O-])c1cc(S(=O)(=O)c2ccc(O)c([N+](=O)[O-])c2)ccc1O | > 35 µM (inactive)
5 | Cc1cc(SCC(=O)N/N=C/c2ccccc2C(=O)O)c(C)cc1Br | > 35 µM (inactive)
6 | CCc1ccc(C2C(=O)c3ccccc3C2=O)cc1 | > 35 µM (inactive)
7 | CCCC(=O)NC(c1ccc(C)cc1)c1ccc2cccnc2c1O (stereo not drawn) | 7.22 µM
8 | COc1ccc(NC(=O)CNC(=O)Cc2cccc3ccccc23)c(OC)c1 | > 35 µM (inactive)
9 | O=[N+]([O-])c1ccc(N=Cc2ccc(Br)c([N+](=O)[O-])c2)cc1 | 15.4 µM
10 | CC(=O)Nc1nc2ccccc2n1CCOc1ccccc1Cl | > 35 µM (inactive)
11 | N/C(=N\OC(=O)Cc1cccs1)c1ccccc1 | > 35 µM (inactive)
12 | Cc1ccc(C)c(-c2cc(C(=O)Nc3cccc(C(=O)O)c3)c3ccccc3n2)c1 | > 35 µM (inactive)
13 | CCCC(=O)NC(c1ccc(Cl)cc1)c1ccc2cccnc2c1O (stereo not drawn) | 2.22 µM
14 | Cc1noc(C(=O)Nc2sc3c(c2C#N)CCC3)c1Cl | > 35 µM (inactive)
15 | O=C(Nc1ccccc1)N(C1=NCCCCS1)c1cccc2ccccc12 | > 35 µM (inactive)
16 | CCOC(=O)C1CCN(C(=O)C2CCCN(c3ncnc4c3nc3n4CCCCC3)C2)CC1 (stereo not drawn) | > 35 µM (inactive)
17 | CC(=O)NCCC(=O)Nc1cc(S(=O)(=O)N2CCOCC2)ccc1N1CCOCC1 | > 35 µM (inactive)
18 | O=C(c1ccc(F)cc1)N(Cc1cccs1)C1CCS(=O)(=O)C1 (stereo not drawn) | > 35 µM (inactive)
19 | COc1ccc(CCNC(=O)CSc2nc(-c3ccc(OC)c(OC)c3)ccc2C#N)cc1 | > 35 µM (inactive)
20 | CCCCCCCCCS(=O)(=O)N/N=C/c1cccc([N+](=O)[O-])c1 | > 35 µM (inactive)
21 | C=C(C)Cn1c(CCNC(=O)C(C)C)nc2ccccc21 | > 35 µM (inactive)
22 | CC(=O)Nc1nc(C)c(-c2csc(Nc3ccccn3)n2)s1 | > 35 µM (inactive)
23 | COc1ccccc1C(=O)Oc1ccccc1C(=O)Nc1ccccc1 | > 35 µM (inactive)
24 | COc1ccc(NC(=O)Nc2ccc(CC(=O)O)cc2)cc1 | > 35 µM (inactive)
25 | Cc1noc(C)c1COC(=O)C1CC(O)CN1S(=O)(=O)c1ccc(Cl)cc1 (stereo not drawn) | > 35 µM (inactive)
26 | COc1cccc(C(=O)C2CCCN(Cc3ccc4nsnc4c3)C2)c1 (stereo not drawn) | > 35 µM (inactive)

Row | Structure (SMILES) | EC50
27 | c1ccc(OCc2nc(-c3ccncc3)no2)cc1 | > 35 µM (inactive)
28 | Cc1cc(=O)oc2cc(OCC(=O)N3CCN(c4ccc(F)cc4)CC3)ccc12 | > 35 µM (inactive)
29 | CCC(=O)NC(c1ccc(Cl)cc1Cl)c1ccc2cccnc2c1O (stereo not drawn) | 6.22 µM
30 | Cc1ccc2nc(SCC(=O)Nc3ccc(Br)cc3)nc(=O)n2c1 | > 35 µM (inactive)
31 | CN(CC(=O)Nc1ccc(F)c(F)c1F)C(=O)/C=C/c1ccc(Cl)cc1 | > 35 µM (inactive)
32 | CC(C)N(c1ccccc1)c1ncnc(NCCC(=O)O)c1[N+](=O)[O-] | > 35 µM (inactive)
33 | CCOC(=O)c1c(NS(=O)(=O)c2ccccc2)n(CCCOC)c2nc3ccccc3nc12 | > 35 µM (inactive)
34 | O=C(N/N=C/C(Br)=C\c1ccccc1)c1n[nH]c2c1CCC2 | 7.85 µM
35 | Nc1ccnn1-c1ccccc1 | > 35 µM (inactive)
36 | COc1ccc(CN2CCNC(=O)C2CC(=O)N(C)CC2CCOCC2)cc1OC (stereo not drawn) | > 35 µM (inactive)
37 | COc1cccc(/C=N\NC(=O)Cn2nnc3ccccc32)c1O | > 35 µM (inactive)
38 | O=[N+]([O-])c1cccc(/C=C/c2ccc3cccc(O)c3n2)c1 | 33.9 µM
39 | COC(=O)C1=C(C)N(C)C(=O)NC1c1cc(Cl)c(O)c(OC)c1 (stereo not drawn) | > 35 µM (inactive)
40 | Oc1cccc(/C=N/c2c(-c3ccco3)nc3ccccn23)c1 | > 35 µM (inactive)
41 | C=CCNc1nc(-c2ccccn2)nnc1-c1ccccc1 | 7.41 µM
42 | Cc1cc(Nc2ccccc2)cc(=O)n1C | > 35 µM (inactive)
43 | N/C(=N\OC(=O)c1cccs1)c1ccc(Cl)cc1 | > 35 µM (inactive)
44 | CNc1c2c(nn1C)CCCC2 | > 35 µM (inactive)
45 | COc1ccc(C(=O)N/N=C(\c2ccccc2)c2ccccn2)cc1 | 11.5 µM
46 | O=C(NCC1CCCO1)c1cc(-c2ccc(F)cc2)no1 (stereo not drawn) | 32.6 µM
47 | COc1cnc(-c2ccccn2)nc1NC(C)C | 1.85 µM
48 | COc1ccc(N/N=C/c2c(C(=O)O)ccc3ccccc23)cc1 | 6.81 µM
49 | O=C1C=C(c2ccccc2)CC(c2cccs2)C1n1cnc([N+](=O)[O-])c1 (stereo not drawn) | > 35 µM (inactive)
50 | COc1ccccc1CNC(=O)c1cccc(NC(=O)c2ccccc2)c1 | > 35 µM (inactive)
51 | CC(=O)OCCCNc1cc(Sc2ccc(C)cc2)c2nonc2c1[N+](=O)[O-] | > 35 µM (inactive)
52 | CCOc1ccc(C(=O)NCC2CCCO2)cc1OCC (stereo not drawn) | > 35 µM (inactive)

Row | Structure (SMILES) | EC50
53 | O=C(NC(CSCc1ccccc1)C(=O)N/N=C/c1ccc(O)cc1O)c1ccc([N+](=O)[O-])cc1 (stereo not drawn) | 2.51 µM
54 | COc1ccc(CC(=O)NNC(=S)NCC2CC2)cc1OC | > 35 µM (inactive)
55 | CC(C)(C)c1ccc(N2C(=O)CC(C/C=C/c3ccccc3)C2=O)cc1 (stereo not drawn) | > 35 µM (inactive)
56 | CCOC(=O)c1cc2c(ccn2C)n1CC(=O)N1CCN(c2ccccc2)CC1 | > 35 µM (inactive)
57 | CSc1sc(C(=O)N2CCCCC2)c(-c2cccs2)c1C#N | > 35 µM (inactive)
58 | Cc1ccc(CNC(=O)NC2CCCCC2)cc1 | > 35 µM (inactive)
59 | COc1ccccc1OCc1nnc(SCC(=O)NCc2ccco2)n1-c1ccccc1 | > 35 µM (inactive)
60 | CCC(C)c1ccc2oc(-c3ccc(NC(=O)Cn4cnc5c(=O)n(C)c(=O)n(C)c54)cc3)nc2c1 (stereo not drawn) | 6.07 µM
61 | CCC(=O)N1CCN(c2nc3ccc(Br)cc3s2)CC1 | > 35 µM (inactive)
62 | O=C(N/N=C/c1cc(Br)ccc1O)c1ccncc1 | > 35 µM (inactive)
63 | COc1ccc(C2(C)NC(=O)NC2=O)cc1OC (stereo not drawn) | > 35 µM (inactive)
64 | O=C(O)c1ccccc1OCCOc1ccccc1C(=O)O | > 35 µM (inactive)
65 | CCCC(=O)NC(c1ccc(C(C)C)cc1)c1ccc2cccnc2c1O (stereo not drawn) | 2.1 µM
66 | Cc1cc(SCC(=O)N/N=C/c2ccc(O)cc2O)c(C)cc1Br | 32.3 µM
67 | O=[N+]([O-])c1ccc(N/N=C/c2ccccc2O)cc1 | > 35 µM (inactive)
68 | Cc1cccc(C(=O)OC(C)CN2CCCC2)c1 (stereo not drawn) | > 35 µM (inactive)
69 | Cc1ccc(C2=NS(=O)(=O)N(C)C(C(=O)NC3CCCC3)=C2)cc1 | > 35 µM (inactive)
70 | Cc1ccc(C(=O)Nc2c3c(nn2C(C)(C)C)CS(=O)(=O)C3)cc1C | > 35 µM (inactive)
71 | O=C(C1=C[C@@H](C2CC2)C[C@@H](OCCCCO)O1)N1CCN(Cc2ccc3c(c2)OCO3)CC1 | > 35 µM (inactive)
72 | Nc1ncnc2c1ncn2CCN1CCOCC1 | > 35 µM (inactive)
73 | COc1cccc(NC(=S)N(CCCN2CCOCC2)Cc2cn(C)c3ccccc23)c1 | > 35 µM (inactive)
74 | O=C(CCc1ccccc1)NC(c1cccs1)c1cc(Cl)c2cccnc2c1O (stereo not drawn) | 35.2 µM
75 | CCOC(=O)C1=C(C)NC(C)=C(C(=O)OCC)C1C(=O)OCC(=O)N(C)C1CCS(=O)(=O)C1 (stereo not drawn) | > 35 µM (inactive)
76 | CCc1ccc(NC(=O)COC(=O)c2cccs2)cc1 | > 35 µM (inactive)
77 | COc1cc(C(=O)NCCc2nc3ccccc3n2C)cc(OC)c1OC | > 35 µM (inactive)
78 | COc1ccc(N=C2C(=O)N3CCCc4cccc2c43)cc1 | > 35 µM (inactive)

Row | Structure (SMILES) | EC50
79 | N#CC(=C=[N-])c1nc2ccccc2nc1-[n+]1cccc(NC(=O)c2ccc(F)cc2)c1 | > 35 µM (inactive)
80 | CC(=O)c1cccc(N(C(=O)c2ccccn2)C(C(=O)NC2CCCCC2)c2ccccc2)c1 (stereo not drawn) | > 35 µM (inactive)
81 | Cc1ccc(-n2cc(CN3CCC(CO)(Cc4ccccc4)CC3)cn2)cc1 | > 35 µM (inactive)
82 | NS(=O)(=O)c1ccc(NC(=O)c2ccc(CSc3ccccc3)o2)cc1 | > 35 µM (inactive)
83 | COc1ccc(/C=N/NC(=O)c2ccccc2O)cc1CSc1ccccn1 | > 35 µM (inactive)
84 | CC(C)[C@H](NC(=O)c1ccco1)C(=O)OCc1cc(=O)n2c(n1)sc1ccccc12 | > 35 µM (inactive)
85 | COc1ccc(/C=N/NC(=S)Nc2cc(S(=O)(=O)N3CCOCC3)ccc2N2CCOCC2)cc1O | > 35 µM (inactive)
86 | CC(C)[C@H](NC(=O)c1ccccc1Cl)C(=O)Nc1nc(-c2ccccn2)cs1 | 6.64 µM
87 | COCCNC(=O)c1cc(-c2cccs2)on1 | 12 µM
88 | Cc1ccc(/C=C(\C#N)c2nn(-c3ccccc3)c(N)c2C#N)cc1 | > 35 µM (inactive)
89 | Cn1c(SCC(=O)c2ccccc2)nnc1-c1ccco1 | > 35 µM (inactive)
90 | CCN(CC)CCOc1ccc2c(c1)C(=NO)c1cc(OCCN(CC)CC)ccc1-2 | > 35 µM (inactive)
91 | Cc1ccc(CNc2ccc3c(c2)nc(C)n3C)cc1 | > 35 µM (inactive)
92 | COc1ccc(CN(C)CC(=O)Nc2ccc(SC(F)F)cc2)cc1OC | > 35 µM (inactive)
93 | CCOc1cccc(/C=N/Nc2ccc(S(=O)(=O)N(CC)CC)cn2)c1O | 3.59 µM
94 | Cc1cc(Cl)n2c(nc3cc(F)c(F)cc32)c1C#N | > 35 µM (inactive)
95 | COc1ccc2nc(C)cc(SCC(=O)N/N=C/c3ccc(O)cc3O)c2c1 | 8.74 µM
96 | Cn1cccc1-c1cc(C(=O)N/N=C/c2cc(Br)ccc2O)[nH]n1 | 4.69 µM
97 | Cc1ccc(C)c(-n2nnnc2Sc2nnnn2-c2ccccc2)c1 | > 35 µM (inactive)
98 | CC(C)(C)c1cc(C(=O)N2CCN(c3ncccn3)CC2)ccn1 | > 35 µM (inactive)
99 | C=CCNC(=O)/C(=C/c1cn(-c2ccccc2)nc1-c1cccc([N+](=O)[O-])c1)NC(=O)c1ccccc1 | > 35 µM (inactive)
100 | CCOc1ccc2c(C)c(Cl)c(=O)oc2c1 | > 35 µM (inactive)
101 | CCCCCCn1nc(C(=O)Nc2nc3c(s2)CCCC3)c2ccccc2c1=O | > 35 µM (inactive)
102 | O=C(CCCc1ccccc1)Nc1ccccn1 | > 35 µM (inactive)
103 | CN(Cc1ccccc1)C(=O)CC(=O)N(C)Cc1ccccc1 | > 35 µM (inactive)
